Measured values published in US8338565B2, “Macrocyclic compounds for inhibition of tumor necrosis factor alpha” (Ensemble Therapeutics Corporation, priority 2008, dated 2012).
Where two headings read alike, the source gives them in different places. Numbered stars: 1 amine (or outer) side, 2 acyl side, 3 side chain; on linkers, the order of the positions; unused ones are H or OH. Bridge positions count the residues as written; N and C are the ends. Square brackets hold non-standard residues; d marks the D form. Peptide text beside a SMILES is read from it. * marks the point of attachment. Tartaroyl(2R,3R-(OAc)2) = CC(=O)O[C@@H](C(=O)[*:1])[C@@H](OC(C)=O)C(=O)[*:2]; Phe(3-Ph) = N[C@@H](Cc1cccc(-c2ccccc2)c1)C(=O)O; Phe(4-CF3) = N[C@@H](Cc1ccc(C(F)(F)F)cc1)C(=O)O; Phe(4-COOH) = N[C@@H](Cc1ccc(C(=O)O)cc1)C(=O)O; Phe(2,4-Cl2) = N[C@@H](Cc1ccc(Cl)cc1Cl)C(=O)O; dPhe(4-CN) = N#Cc1ccc(C[C@@H](N)C(=O)O)cc1; Bip = N[C@@H](Cc1ccc(-c2ccccc2)cc1)C(=O)O; dBip = N[C@H](Cc1ccc(-c2ccccc2)cc1)C(=O)O; dPhe(4-NH2) = Nc1ccc(C[C@@H](N)C(=O)O)cc1; Phe(4-Br) = N[C@@H](Cc1ccc(Br)cc1)C(=O)O; Phe(4-NH2) = Nc1ccc(C[C@H](N)C(=O)O)cc1; dAla(2-furyl) = N[C@H](Cc1ccco1)C(=O)O; His(τ-Me) = Cn1cnc(C[C@H](N)C(=O)O)c1; d(hPhe) = N[C@H](CCc1ccccc1)C(=O)O; d2Thi = N[C@H](Cc1cccs1)C(=O)O; Suc = O=C(CCC(=O)[*:2])[*:1]; Inp = O=C(O)C1CCNCC1; GABA = NCCCC(=O)O; OtBu = CC(C)(C)O*; βAla = NCCC(=O)O

Target: T1, TNFα / TNFα receptor (TNFα R1/Fc) (Homo sapiens, UniProt P01375)
T1 construct: purchased R&D Systems
Experiment: Inhibition of binding of TNFα to the TNFα receptor (plate ELISA competition)
Conditions: Table 2
How it was run: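 Plates were coated with TNFα at 15 nM. Test compound and 8.33 nM receptor-Fc (PBST, 2% DMSO) were first mixed in solution for 30 min at room temperature, then transferred to the plates for another 30 min. Competition was read by absorbance at 450 nm after HRP anti-human IgG Fc detection with TMB.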

[1] = Activity (IC50, inhibition of TNFα binding to TNFα R1/Fc)
[2] = read-out: Activity (IC50, inhibition of TNFα binding to TNFα R1/Fc)

T1 sequence (P01375 77-233 limits assumed, species assumed): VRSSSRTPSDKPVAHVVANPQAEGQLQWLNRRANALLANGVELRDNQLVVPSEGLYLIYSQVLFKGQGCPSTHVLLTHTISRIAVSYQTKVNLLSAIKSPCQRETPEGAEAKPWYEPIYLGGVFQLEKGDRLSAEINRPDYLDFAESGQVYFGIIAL

SMILES | IC50 [1] | IC50 [2]
O=C1COc2ccc(cc2)C[C@H](C(=O)N[C@H](CCc2ccccc2)C(=O)O)NC(=O)[C@H](Cc2c[nH]c3ccccc23)NC(=O)[C@@H](Cc2ccc(-c3ccccc3)cc2)NC(=O)[C@H](Cc2ccncc2)N1 [Compound 740] | 10 to 30 µM | –
N#Cc1ccc(C[C@H]2NC(=O)CCC(=O)Nc3ccc(cc3)C[C@@H](C(=O)O)NC(=O)[C@@H](Cc3ccccc3)NC(=O)[C@H](Cc3ccc(C(F)(F)F)cc3)NC2=O)cc1 [Compound 131] ([dPhe(4-CN)][Phe(4-CF3)][dF][Phe(4-NH2)]-OH; linker N-4 via Suc) | – | 30 to 100 µM
O=C(O)CC[C@H]1NC(=O)[C@H](Cc2ccc(-c3ccccc3)cc2)NC(=O)[C@@H](Cc2cccs2)NC(=O)CCC(=O)Nc2ccc(cc2)C[C@@H](C(=O)O)NC1=O [Compound 69] ([d2Thi][Bip][dE][Phe(4-NH2)]-OH; linker N-4 via Suc) | – | > 100 µM
CC(=O)O[C@H]1C(=O)Nc2ccc(cc2)C[C@H](C(=O)O)NC(=O)[C@@H](Cc2ccccc2)NC(=O)[C@H](Cc2ccc(Cl)cc2Cl)NC(=O)[C@@H](Cc2ccccc2)NC(=O)[C@@H]1OC(C)=O [Compound 233] ([dF][Phe(2,4-Cl2)][dF][dPhe(4-NH2)]-OH; linker N-4 via Tartaroyl(2R,3R-(OAc)2)) | – | 30 to 100 µM
O=C1CCC(=O)N[C@H](CCc2ccccc2)C(=O)N[C@@H](Cc2cccc(-c3ccccc3)c2)C(=O)N[C@H](Cc2ccccc2)C(=O)N[C@H](C(=O)O)Cc2ccc(cc2)N1 [Compound 113] ([d(hPhe)][Phe(3-Ph)][dF][Phe(4-NH2)]-OH; linker N-4 via Suc) | – | 10 to 30 µM
O=C1COc2ccc(cc2)C[C@@H](C(=O)O)NC(=O)[C@H](CCc2ccccc2)NC(=O)[C@@H](Cc2ccc(-c3ccccc3)cc2)NC(=O)[C@H](Cc2ccc(-c3ccc(F)cc3)cc2)N1 [Compound 698] | – | < 10 µM
O=C1COc2ccc(cc2)C[C@@H](C(=O)O)NC(=O)[C@H](Cc2ccccc2)NC(=O)[C@H](Cc2ccc(F)cc2)NC(=O)[C@H](Cc2cccs2)N1 [Compound 398] | – | < 10 µM
O=C1COc2ccc(cc2)C[C@H](C(=O)N[C@H](Cc2ccccc2)C(=O)O)NC(=O)[C@@H](CCc2ccccc2)NC(=O)[C@H](Cc2ccc(-c3ccccc3)cc2)NC(=O)[C@@H](Cc2cccs2)N1 [Compound 562] | < 10 µM | –
O=C1COc2ccc(cc2)C[C@@H](C(=O)O)NC(=O)[C@H](c2ccccc2)NC(=O)[C@H](Cc2ccc(-c3ccccc3)cc2)NC(=O)[C@H](Cc2cccs2)N1 [Compound 291] | – | > 100 µM
O=C1Nc2ccc(cc2)C[C@H](C(=O)N[C@@H](Cc2ccccc2)C(=O)O)NC(=O)[C@@H](Cc2ccccc2)NC(=O)[C@H](Cc2ccc(-c3ccccc3)cc2)NC(=O)[C@@H](Cc2cccs2)NC(=O)C2CC12 (stereo partly drawn) [Compound 708] | – | < 10 µM
O=C1N[C@H](CCc2ccccc2)C(=O)N[C@@H](C(=O)O)Cc2ccc(cc2)NC(=O)[C@H](O)[C@@H](O)C(=O)N[C@H](Cc2cccs2)C(=O)N[C@H]1Cc1ccc(Cl)cc1Cl [Compound 240] | – | 10 to 30 µM
O=C1COc2ccc(cc2)C[C@@H](C(=O)O)NC(=O)[C@H](Cc2ccc(-c3ccncc3)cc2)NC(=O)[C@@H](Cc2ccc(-c3ccccc3)cc2)NC(=O)[C@H](Cc2cccs2)N1 [Compound 634] | – | < 10 µM
O=C(O)CCNC(=O)[C@@H]1Cc2ccc(cc2)OCC(=O)N[C@@H](Cc2ccc(-c3ccccc3)cc2)C(=O)N[C@H](Cc2ccc(-c3ccccc3)cc2)C(=O)N[C@@H](CCc2ccccc2)C(=O)N1 [Compound 569] | – | < 10 µM
O=C1COc2ccc(cc2)C[C@@H](C(=O)N[C@H](Cc2ccccc2)C(=O)O)NC(=O)[C@H](Cc2ccccc2)NC(=O)[C@H](Cc2ccc(-c3ccccc3)cc2)NC(=O)[C@H](Cc2cccs2)N1 [Compound 228] | – | < 10 µM
O=C1CCC(=O)N[C@H](Cc2cccs2)C(=O)N[C@@H](Cc2ccc(-c3ccccc3)cc2)C(=O)N[C@H](Cc2ccccc2)C(=O)N[C@H](C(=O)N2CCC[C@@H]2C(=O)O)Cc2ccc(cc2)N1 [Compound 32] ([d2Thi][Bip][dF][Phe(4-NH2)][dP]-OH; linker N-4 via Suc) | – | > 100 µM
CC(C)(C)OC(=O)CC[C@@H]1NC(=O)[C@H](Cc2ccc(-c3ccccc3)cc2)NC(=O)[C@@H](Cc2cccs2)NC(=O)CCC(=O)Nc2ccc(cc2)C[C@@H](C(=O)O)NC1=O [Compound 66] ([d2Thi][Bip]E(OtBu)[Phe(4-NH2)]-OH; linker N-4 via Suc) | – | > 100 µM
COC(=O)[C@@H](CC(=O)O)NC(=O)[C@@H]1Cc2ccc(cc2)NC(=O)CCC(=O)N[C@H](CCc2ccccc2)C(=O)N[C@@H](Cc2ccc(-c3ccccc3)cc2)C(=O)N[C@H](Cc2ccccc2)C(=O)N1 [Compound 351] ([d(hPhe)][Bip][dF][Phe(4-NH2)][dD]-OMe; linker N-4 via Suc) | – | 10 to 30 µM
O=C1CCC(=O)N[C@H](Cc2ccccc2)C(=O)N[C@@H](Cc2ccc(Br)cc2)C(=O)N[C@H](Cc2ccco2)C(=O)N[C@@H](C(=O)O)Cc2ccc(cc2)N1 [Compound 153] ([dF][Phe(4-Br)][dAla(2-furyl)][dPhe(4-NH2)]-OH; linker N-4 via Suc) | – | > 100 µM

SMILES | IC50 [1] | IC50 [2]
O=C(O)CCCNC(=O)[C@@H]1Cc2ccc(cc2)NC(=O)CCC(=O)N[C@H](Cc2ccccc2)C(=O)N[C@@H](Cc2ccc(-c3ccccc3)cc2)C(=O)N[C@H](CCc2ccccc2)C(=O)N1 [Compound 460] ([dF][Bip][d(hPhe)][Phe(4-NH2)][GABA]-OH; linker N-4 via Suc) | – | > 100 µM
O=C1COc2ccc(cc2)C[C@H](C(=O)O)NC(=O)[C@H](Cc2ccccc2F)NC(=O)[C@@H](Cc2ccc(-c3ccccc3)cc2)NC(=O)[C@H](Cc2ccncc2)N1 [Compound 729] | – | > 100 µM
O=C1CCNC(=O)c2ccc(cc2)C[C@@H](C(=O)O)NC(=O)[C@H](Cc2ccccc2)NC(=O)[C@H](Cc2ccc(-c3ccccc3)cc2)NC(=O)[C@@H](CCc2ccccc2)N1 [Compound 464] ([βAla][d(hPhe)][Bip]F[Phe(4-COOH)]-OH; lactam N-5) | – | < 10 µM
O=C1COc2ccc(cc2)C[C@@H](C(=O)O)NC(=O)[C@@H](C/C=C/c2ccccc2)NC(=O)[C@H](Cc2ccc(-c3ccccc3)cc2)NC(=O)[C@@H](Cc2cccs2)N1 [Compound 537] | – | > 100 µM
O=C1COc2ccc(cc2)C[C@@H](C(=O)O)NC(=O)[C@H](CCc2ccccc2)NC(=O)[C@@H](Cc2ccc(-c3ccccc3)cc2)NC(=O)[C@H](Cc2ccc(Cl)cc2)N1 [Compound 707] | – | < 10 µM
O=C(O)CCNC(=O)[C@@H]1Cc2ccc(cc2)C(=O)N[C@H](CCc2ccccc2)C(=O)N[C@@H](Cc2ccc(-c3ccccc3)cc2)C(=O)N[C@H](Cc2ccccc2)C(=O)N1 [Compound 424] ([d(hPhe)][Bip][dF][Phe(4-COOH)][βAla]-OH; lactam N-4) | – | < 10 µM
O=C1COc2ccc(cc2)C[C@@H](C(=O)O)NC(=O)[C@H](CCc2ccccc2)NC(=O)[C@@H](Cc2ccc(-c3ccccc3)cc2)NC(=O)[C@H](CCCc2ccccc2)N1 [Compound 509] | – | < 10 µM
Cn1cnc(C[C@@H]2NC(=O)[C@@H](Cc3cccs3)NC(=O)CCC(=O)Nc3ccc(cc3)C[C@@H](C(=O)O)NC(=O)[C@@H](Cc3ccccc3)NC2=O)c1 [Compound 100] ([d2Thi][His(τ-Me)][dF][Phe(4-NH2)]-OH; linker N-4 via Suc) | – | > 100 µM
O=C1CCC(=O)N[C@H](Cc2cccs2)C(=O)N[C@H](Cc2ccc(-c3ccccc3)cc2)C(=O)N[C@@H](Cc2ccccc2)C(=O)N[C@@H](C(=O)O)Cc2ccc(cc2)N1 [Compound 503] ([d2Thi][dBip]F[dPhe(4-NH2)]-OH; linker N-4 via Suc) | – | > 100 µM
O=C(O)[C@@H]1Cc2ccc(cc2)NC(=O)[C@H](O)[C@@H](O)C(=O)N[C@H](Cc2ccccc2)C(=O)N[C@@H](Cc2ccc(-c3ccccc3)cc2)C(=O)N[C@H](CCc2ccccc2)C(=O)N1 [Compound 245] | – | 10 to 30 µM
COc1ccc(-c2ccc(C[C@@H]3NC(=O)[C@@H](CCc4ccccc4)NC(=O)CCC(=O)Nc4ccc(cc4)C[C@@H](C(=O)O)NC(=O)[C@@H](Cc4ccccc4)NC3=O)cc2)cc1 [Compound 168] | – | 30 to 100 µM
O=C1COc2ccc(cc2)C[C@@H](C(=O)N[C@@H](Cc2ccc(O)cc2)C(=O)O)NC(=O)[C@H](Cc2ccccc2)NC(=O)[C@@H](Cc2ccc(-c3ccccc3)cc2)NC(=O)[C@H](Cc2cccs2)N1 [Compound 387] | – | > 100 µM
C[C@@H](NC(=O)[C@@H]1Cc2ccc(cc2)NC(=O)CCC(=O)N[C@H](Cc2ccccc2)C(=O)N[C@@H](Cc2ccc(-c3ccccc3)cc2)C(=O)N[C@H](CCc2ccccc2)C(=O)N1)C(=O)O [Compound 457] ([dF][Bip][d(hPhe)][Phe(4-NH2)][dA]-OH; linker N-4 via Suc) | – | > 100 µM
O=C1CCC(=O)N[C@H](Cc2cccs2)C(=O)N[C@@H](Cc2ccc(-c3ccccc3)cc2)C(=O)N[C@H](Cc2ccccc2)C(=O)N[C@H](C(=O)N2CCC(C(=O)O)CC2)Cc2ccc(cc2)N1 [Compound 23] ([d2Thi][Bip][dF][Phe(4-NH2)][Inp]-OH; linker N-4 via Suc) | – | > 100 µM
O=C1COc2ccc(cc2)C[C@@H](C(=O)O)NC(=O)[C@@H](CCc2ccccc2)NC(=O)[C@H](Cc2ccc(C(F)(F)F)cc2)NC(=O)[C@@H](Cc2ccc(C(F)(F)F)cc2)N1 [Compound 146] | – | 10 to 30 µM
O=C1CCCCc2cn(nn2)C[C@@H](C(=O)O)NC(=O)[C@@H](CCc2ccccc2)NC(=O)[C@H](Cc2ccc(-c3ccccc3)cc2)NC(=O)[C@@H](Cc2cccs2)N1 [Compound 544] | – | < 10 µM
C[C@H]1NC(=O)[C@H](Cc2ccc(-c3ccccc3)cc2)NC(=O)[C@@H](Cc2cccs2)NC(=O)CCC(=O)Nc2ccc(cc2)C[C@@H](C(=O)O)NC1=O [Compound 44] ([d2Thi][Bip][dA][Phe(4-NH2)]-OH; linker N-4 via Suc) | – | > 100 µM
O=C1COc2ccc(cc2)C[C@@H](C(=O)N[C@H](CCc2ccccc2)C(=O)O)NC(=O)[C@H](Cc2c[nH]c3ccccc23)NC(=O)[C@@H](Cc2ccc(-c3ccccc3)cc2)NC(=O)[C@H](Cc2ccncc2)N1 [Compound 745] | 10 to 30 µM | –
